Target: T1, α4β1 integrin (Homo sapiens, UniProt P05556+P13612)
T1 construct: 2.5×10^5 Jurkat cells in the presence or absence of titrated test compounds; endogenous in cells; host or cells: Jurkat cells
Test: α4β1 Integrin-Dependent Jurkat Cell Adhesion to VCAM-Ig
Format: cell-based
Conditions: inhibition of Jurkat cell adhesion to 2d VCAM-1-hFc
Protocol: α4β1 Integrin-Dependent Jurkat Cell Adhesion to VCAM-Ig
96 well NUNC plates were coated with F(ab)2 fragment goat anti-human IgG Fcγ-specific antibody [Jackson Immuno Research 109-006-098: 100 μl at 2 μg/ml in 0.1M NaHCO3, pH 8.4], overnight at 4°. The plates were washed (3×) in phosphate-buffered saline (PBS) and then blocked for 1 h in PBS/1% BSA at room temperature on a rocking platform. After washing (3× in PBS) 35 ng/ml of purified 2d VCAM-1-hFc diluted in PBS/1% BSA was added and the plates left for 60 minutes at room temperature on a rocking platform. The plates were washed (3× in PBS) and the assay then performed at 37° for 30 min in a total volume of 200 μl containing 2.5×10^5 Jurkat cells in the presence or absence of titrated test compounds.
Each plate was washed (2×) with medium and the adherent cells were fixed with 100 μl methanol for 10 minutes followed by another wash. 100 μl 0.25% (w/v) Rose Bengal (Sigma R4507) in PBS was added for 5 minutes at room temperature and the plates washed (3×) in PBS. 100 μl 50% (v/v) ethanol in PBS was added and the plates left for 60 min after which the absorbance (570 nm) was measured.

T1 sequence (P13612 34-1032): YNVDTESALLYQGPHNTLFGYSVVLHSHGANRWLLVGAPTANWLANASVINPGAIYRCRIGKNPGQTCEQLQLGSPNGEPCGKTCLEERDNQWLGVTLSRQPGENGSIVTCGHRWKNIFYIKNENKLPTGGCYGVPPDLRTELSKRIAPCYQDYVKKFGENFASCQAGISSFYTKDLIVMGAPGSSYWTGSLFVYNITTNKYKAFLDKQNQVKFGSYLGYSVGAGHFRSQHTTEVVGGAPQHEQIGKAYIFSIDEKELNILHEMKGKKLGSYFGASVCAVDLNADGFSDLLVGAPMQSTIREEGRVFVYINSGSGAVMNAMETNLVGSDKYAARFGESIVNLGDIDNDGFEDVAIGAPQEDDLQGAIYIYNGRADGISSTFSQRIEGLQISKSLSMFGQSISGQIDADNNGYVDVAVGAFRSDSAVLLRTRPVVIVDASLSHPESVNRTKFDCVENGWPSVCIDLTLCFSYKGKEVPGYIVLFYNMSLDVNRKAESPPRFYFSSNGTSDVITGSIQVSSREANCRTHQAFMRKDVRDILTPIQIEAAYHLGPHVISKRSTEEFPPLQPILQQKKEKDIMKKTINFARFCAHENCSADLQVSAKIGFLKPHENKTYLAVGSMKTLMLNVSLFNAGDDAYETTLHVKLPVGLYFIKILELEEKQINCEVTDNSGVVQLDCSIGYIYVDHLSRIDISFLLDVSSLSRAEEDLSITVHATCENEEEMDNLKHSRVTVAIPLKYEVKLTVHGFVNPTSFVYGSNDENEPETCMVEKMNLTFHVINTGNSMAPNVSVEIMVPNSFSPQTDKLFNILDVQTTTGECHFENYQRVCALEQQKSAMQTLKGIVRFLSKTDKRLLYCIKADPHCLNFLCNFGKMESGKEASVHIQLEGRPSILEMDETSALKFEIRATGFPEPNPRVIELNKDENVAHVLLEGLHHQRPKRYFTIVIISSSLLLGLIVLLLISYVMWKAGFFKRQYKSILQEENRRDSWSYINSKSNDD
T1 sequence (P05556 21-798): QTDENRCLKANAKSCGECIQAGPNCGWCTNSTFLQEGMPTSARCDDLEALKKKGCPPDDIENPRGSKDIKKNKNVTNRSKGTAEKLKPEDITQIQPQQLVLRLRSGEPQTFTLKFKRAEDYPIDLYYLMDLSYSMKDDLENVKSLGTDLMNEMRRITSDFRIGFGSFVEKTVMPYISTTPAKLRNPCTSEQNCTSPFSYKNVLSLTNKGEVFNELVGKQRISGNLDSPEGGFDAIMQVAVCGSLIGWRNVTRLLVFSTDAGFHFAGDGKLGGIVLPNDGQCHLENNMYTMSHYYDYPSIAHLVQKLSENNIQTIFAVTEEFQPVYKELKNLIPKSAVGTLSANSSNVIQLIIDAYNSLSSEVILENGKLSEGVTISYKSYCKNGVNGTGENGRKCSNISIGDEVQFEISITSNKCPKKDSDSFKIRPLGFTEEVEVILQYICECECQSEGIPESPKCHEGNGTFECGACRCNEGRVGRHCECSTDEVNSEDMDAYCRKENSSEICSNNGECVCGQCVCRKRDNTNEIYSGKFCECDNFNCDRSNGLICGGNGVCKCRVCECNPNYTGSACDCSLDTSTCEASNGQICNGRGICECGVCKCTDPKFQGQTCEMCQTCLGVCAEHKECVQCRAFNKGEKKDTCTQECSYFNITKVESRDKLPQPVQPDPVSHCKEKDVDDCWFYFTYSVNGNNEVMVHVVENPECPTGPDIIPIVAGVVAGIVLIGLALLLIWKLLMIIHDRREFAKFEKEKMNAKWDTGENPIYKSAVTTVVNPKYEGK

Compound: O=C(Nc1ccc(C[C@H](NC2=C(Br)C(=O)C23CCCCC3)C(=O)OCCO)cc1)c1c(Cl)cncc1Cl [Example 1, 2-Hydroxyethyl (2S)-2-(2-bromo-3-oxo-spiro[3,5]non-1-en-1-ylamino)-3-{4-[(3,5-dichlorolsonicotinoyl)amino]phenyl}propanoate]
- IC50: 4 nM

Reference: patent US6872719B1, “Phenylalanine enamide derivatives” (Celltech R & D Limited, priority 2002, dated 2005)
